Data as given in patent US20220177538A1, “CO-AGONISTS AT GLP-1 AND GIP RECEPTORS SUITABLE FOR ORAL DELIVERY” (Novo Nordisk A/S, priority 2020, published 2022).
Where two headings read alike, the source gives them in different places. Marks after values point to notes of the source that are not given here. Starred links: 1 amine or outer side, 2 acyl side, 3 side chain; linkers in the order of their positions; H or OH if unused. Non-standard residues stand in square brackets, D forms with d. Residues, ends and D or L forms follow the SMILES beside them. Groups on a side chain read outwards from the residue. *: point of attachment. C18 diacid = O=C(O)CCCCCCCCCCCCCCCCC(=O)*; γGlu = O=C(O)[C@H](CCC(=O)[*:2])N[*:1]; εLys = N[C@@H](CCCCN[*:1])C(=O)[*:2]; AEEA = NCCOCCOCC(=O)O; Aib = CC(C)(N)C(=O)O

What was measured:
[1] = molecular target: T1, human GIP receptor (Homo sapiens, UniProt P48546); assay: In vitro functional potency, CRE luciferase reporter, whole BHK cells (hGIPR); format: cell-based; conditions: BHK CRE luc2P hGIPR cells
T1 construct: expressed in transfected cells; host or cells: BHK (parent line BHKTS13), clone BHK CRE luc2P hGIPR
T1 sequence (P48546 22-466): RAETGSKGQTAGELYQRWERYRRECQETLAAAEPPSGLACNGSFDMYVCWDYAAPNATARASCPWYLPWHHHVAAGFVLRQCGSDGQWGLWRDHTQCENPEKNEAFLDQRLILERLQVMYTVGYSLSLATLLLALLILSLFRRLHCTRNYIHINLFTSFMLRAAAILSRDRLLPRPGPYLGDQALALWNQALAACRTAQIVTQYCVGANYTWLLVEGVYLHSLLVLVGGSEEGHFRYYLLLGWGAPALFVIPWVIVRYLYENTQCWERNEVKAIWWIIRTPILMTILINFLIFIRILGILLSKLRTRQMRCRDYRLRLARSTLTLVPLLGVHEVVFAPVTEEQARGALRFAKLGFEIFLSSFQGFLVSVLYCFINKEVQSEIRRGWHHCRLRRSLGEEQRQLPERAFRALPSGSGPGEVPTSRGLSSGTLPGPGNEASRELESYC
Outline: (§1)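 Potencies are replicate means (n≥2) from non-linear log(agonist) vs response fits of CRE-driven luminescence. Cells were overnight-plated BHK CRE luc2P lines transfected with human GIPR or GLP-1R, 5000/well.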

[2] = Pharmacokinetic study in dogs after oral dosing of tablets with SNAC; format: in vivo, Beagle dogs; conditions: for Tmax / half-life: male
Description: The purpose of this example is to determine the half-life and plasma exposure in vivo of the compounds of the present invention after p.o. administration to beagle dogs, i.e. the terminal half-life and concentration of test substance that reaches circulation with time. This is done in a pharmacokinetic (PK) study, where these parameters of the compound in question are determined. By terminal half-life is generally meant the period of time it takes to halve a certain plasma concentration, measured after the initial distribution phase.
The amount of SNAC in the tablet composition was 100-300 mg, the amount of magnesium stearate in the tablet composition was 7.7 mg, and the target amount of each test substance in the tablet composition was 3-4 mg.
Male beagle dogs, 1-7 years of age and weighing 9-17 kg during the study period, were included in the study. The dogs were dosed in a fasting state. The dogs were group housed in pens (12 hours light: 12 hours dark), and fed individually and restrictedly once daily with Royal Canin Medium Adult dog food (Royal Canin Products, China Branch, or Brogaarden A/S, Denmark). The dogs were used for repeated PK studies with a suitable wash-out period between successive dosing. An appropriate acclimatization period was given prior to initiation of the first PK study. All handling, dosing, and blood sampling of the animals were performed by trained and skilled staff. Before the studies, the dogs were fasted overnight and from 0 to 4 hours after dosing. The dogs were restricted to water 1 hour before dosing until 4 hours after dosing, but otherwise had ad libitum access to water during the whole period.
The compositions were administered by a single oral dosing to the dogs in groups of 6-8 dogs. […] The mouth was then closed, and 10 mL of tap water was given by syringe or gavage to facilitate swallowing of the tablet.
One blood sample was drawn before dosing, and additional samples were drawn at predefined time points after dosing for up to 240 hours, such as up to 10 hours, to adequately cover the full plasma concentration-time absorption profile of the test substance. For each blood sample time point, approximately 0.8 mL of whole blood was collected in a 1.5 mL EDTA-coated tube, which was gently turned to mix the sample with EDTA. Blood samples were collected in EDTA buffer (8 mM) and then centrifuged at 4° C. 2000 g for 10 minutes. Plasma was pipetted into Micronic tubes on dry ice, and kept at −20° C. or lower until analysis. Blood samples were taken as appropriate, for example from a venflon in the cephalic vein in the front leg for the first 2 hours and then with syringe from the jugular vein for the rest of the time points. The first few drops were allowed to drain from the venflon to avoid heparin saline from the venflon in the sample.
All blood samples were collected into test tubes containing EDTA for stabilisation and kept on ice until centrifugation. Plasma was separated from whole blood by centrifugation and the plasma was stored at −20° C. or lower until analysis.
The plasma was analysed for test substance using LC-MS (Liquid Chromatography-Mass Spectrometry) as known to the person skilled in the art. […] RP-HPLC separation was achieved using a linear gradient of 1:1 acetonitrile/methanol in 1% aqueous formic acid using either: a Phenomenex Onyx Monolithic C18 column (50×2.0 mm) and a flow rate of 0.8 mL/min at 30° C.; or an Agilent Poroshell 120 SB-C18 column (50×2.1 mm, 2.7 μm) at a flow rate of 0.4 mL/min at 60° C. The mass spectrometer was operated in either positive ionization SIM mode or positive ionization PRM mode.
For each individual animal, a plasma concentration-time profile was analysed by a non-compartmental model in Pharsight Phoenix WinNonLin ver.

[3] = molecular target: human GLP-1 receptor (Homo sapiens, UniProt P43220); assay: In vitro functional potency, CRE luciferase reporter, whole BHK cells (hGLP-1R); format: cell-based; design: expressed in transfected cells; host or cells: BHK (parent line BHKTS13), clone BHK CRE luc2P hGLP-1R; conditions: BHK CRE luc2P hGLP-1R cells
Chain of human GLP-1 receptor (P43220 24-463): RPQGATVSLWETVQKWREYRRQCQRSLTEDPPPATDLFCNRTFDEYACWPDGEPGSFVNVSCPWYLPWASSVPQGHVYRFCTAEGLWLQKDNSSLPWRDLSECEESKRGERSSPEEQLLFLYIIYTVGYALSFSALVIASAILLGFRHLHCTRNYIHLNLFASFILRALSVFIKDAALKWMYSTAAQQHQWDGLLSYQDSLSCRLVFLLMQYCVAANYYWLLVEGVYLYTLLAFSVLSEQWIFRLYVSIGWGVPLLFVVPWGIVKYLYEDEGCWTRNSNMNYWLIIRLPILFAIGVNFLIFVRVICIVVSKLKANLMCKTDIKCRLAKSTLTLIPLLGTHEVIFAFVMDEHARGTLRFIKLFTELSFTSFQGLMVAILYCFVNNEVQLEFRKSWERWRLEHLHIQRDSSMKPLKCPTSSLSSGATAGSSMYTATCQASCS
Outline: as §1

[4] = 0% HSA, read-out: hGIPR, CRE Luc 0% HSA EC50
[5] = hGIPR, CRE Luc 1% HSA EC50, 1% HSA
[6] = 0% HSA, read-out: hGLP-1R, CRE Luc 0% HSA EC50
[7] = hGLP-1R, CRE Luc 1% HSA EC50, 1% HSA
[8] = oral tablet, SNAC 100 mg, test substance 3 mg, Beagle dogs, arithmetic mean

Row | Structure (SMILES) | EC50 [1, 4] [nM] | EC50 [1, 5] [nM] | AUC/Dose ([2]; dog, in vivo, po) | Cmax/Dose ([2]; dog, in vivo, po) | Tmax ([2]; Beagle, dog, in vivo, po) [h] | half-life ([2]; Beagle, dog, in vivo, po) [h] | EC50 [3, 6] [nM] | EC50 [3, 7] [nM] | AUC/Dose ([2]; oral tablet, SNAC 300 mg, test substance 3 mg, Beagle dogs, arithmetic mean) [kg·h/L] | Tmax ([2]; dog, plasma, oral tablet, SNAC 100 mg, test substance 3 mg, Beagle dogs, median, read-out: Tmax) [h] | AUC/Dose [2, 8] [kg·h/L] | Cmax/Dose [2, 8] [kg/L]
1 | CC[C@H](C)[C@H](NC(=O)[C@H](Cc1ccccc1)NC(=O)[C@H](CCC(=O)O)NC(=O)[C@H](CCC(N)=O)NC(=O)[C@H](C)NC(=O)[C@H](C)NC(=O)[C@H](CCC(N)=O)NC(=O)[C@H](CCCCNC(=O)[C@@H](N)CCCCNC(=O)[C@@H](N)CCCCNC(=O)CC[C@H](NC(=O)CCCCCCCCCCCCCCCCC(=O)O)C(=O)O)NC(=O)[C@H](CCC(=O)O)NC(=O)[C@H](CC(C)C)NC(=O)[C@H](CC(C)C)NC(=O)[C@@H](NC(=O)[C@H](CO)NC(=O)[C@H](Cc1ccc(O)cc1)NC(=O)[C@H](CC(=O)O)NC(=O)[C@H](CO)NC(=O)[C@@H](NC(=O)[C@H](Cc1ccccc1)NC(=O)[C@@H](NC(=O)CNC(=O)[C@H](CCC(=O)O)NC(=O)C(C)(C)NC(=O)[C@@H](N)Cc1ccc(O)cc1)[C@@H](C)O)[C@@H](C)O)[C@@H](C)CC)C(=O)N[C@@H](CC(N)=O)C(=O)N[C@@H](Cc1c[nH]c2ccccc12)C(=O)N[C@@H](CC(C)C)C(=O)N[C@@H](CC(C)C)C(=O)N[C@@H](C)C(=O)NCC(=O)NCC(=O)N1CCC[C@H]1C(=O)N[C@@H](CO)C(=O)N[C@@H](CO)C(=O)NCC(=O)N[C@@H](C)C(=O)N1CCC[C@H]1C(=O)N1CCC[C@H]1C(=O)N1CCC[C@H]1C(=O)N[C@@H](CO)C(=O)O [Compound 24] (H-Y[Aib]EGTFTSDYSILLEK([εLys-εLys-γGlu-C18 diacid])QAAQEFINWLLAGGPSSGAPPPS-OH) | 0.0039 | 0.115 | 16.4 kg·h/L | 0.29 kg/L | 1.8 | 74 | 0.0121 | 0.49 |  |  |  | 
2 | CC[C@H](C)[C@H](NC(=O)[C@H](Cc1ccccc1)NC(=O)[C@H](CCC(=O)O)NC(=O)[C@H](CCCNC(=N)N)NC(=O)[C@H](C)NC(=O)[C@H](C)NC(=O)[C@H](CCC(N)=O)NC(=O)[C@H](CCC(=O)O)NC(=O)[C@H](CCC(=O)O)NC(=O)[C@H](CC(C)C)NC(=O)[C@H](CC(C)C)NC(=O)[C@@H](NC(=O)[C@H](CO)NC(=O)[C@H](Cc1ccc(O)cc1)NC(=O)[C@H](CC(=O)O)NC(=O)[C@H](CO)NC(=O)[C@@H](NC(=O)[C@H](Cc1ccccc1)NC(=O)[C@@H](NC(=O)CNC(=O)[C@H](CCC(=O)O)NC(=O)C(C)(C)NC(=O)[C@@H](N)Cc1ccc(O)cc1)[C@@H](C)O)[C@@H](C)O)[C@@H](C)CC)C(=O)N[C@@H](CCC(=O)O)C(=O)N[C@@H](Cc1c[nH]c2ccccc12)C(=O)N[C@@H](CC(C)C)C(=O)N[C@@H](CC(C)C)C(=O)N[C@@H](C)C(=O)NCC(=O)NCC(=O)N1CCC[C@H]1C(=O)N[C@@H](CO)C(=O)N[C@@H](CCCCNC(=O)[C@@H](N)CCCCNC(=O)[C@@H](N)CCCCNC(=O)CC[C@H](NC(=O)CCCCCCCCCCCCCCCCC(=O)O)C(=O)O)C(=O)NCC(=O)N[C@@H](C)C(=O)N1CCC[C@H]1C(=O)N1CCC[C@H]1C(=O)N1CCC[C@H]1C(=O)N[C@@H](CO)C(=O)O [Compound 43] (H-Y[Aib]EGTFTSDYSILLEEQAAREFIEWLLAGGPSK([εLys-εLys-γGlu-C18 diacid])GAPPPS-OH) | 0.0056 | 0.445 |  |  | 1.5 | 131 | 0.004 | 0.359 | 21.4 |  |  | 
3 | CC[C@H](C)[C@H](NC(=O)[C@H](Cc1ccccc1)NC(=O)[C@H](CCC(=O)O)NC(=O)[C@H](CCCNC(=N)N)NC(=O)[C@H](C)NC(=O)[C@H](C)NC(=O)[C@H](CCC(N)=O)NC(=O)[C@H](CCCCNC(=O)[C@@H](N)CCCCNC(=O)[C@@H](N)CCCCNC(=O)CC[C@H](NC(=O)CCCCCCCCCCCCCCCCC(=O)O)C(=O)O)NC(=O)[C@H](CCC(=O)O)NC(=O)[C@H](CC(C)C)NC(=O)[C@H](CC(C)C)NC(=O)[C@@H](NC(=O)[C@H](CO)NC(=O)[C@H](Cc1ccc(O)cc1)NC(=O)[C@H](CC(=O)O)NC(=O)[C@H](CO)NC(=O)[C@@H](NC(=O)[C@H](Cc1ccccc1)NC(=O)[C@@H](NC(=O)CNC(=O)[C@H](CCC(=O)O)NC(=O)C(C)(C)NC(=O)[C@@H](N)Cc1ccc(O)cc1)[C@@H](C)O)[C@@H](C)O)[C@@H](C)CC)C(=O)N[C@@H](CC(N)=O)C(=O)N[C@@H](Cc1c[nH]c2ccccc12)C(=O)N[C@@H](CC(C)C)C(=O)N[C@@H](CC(C)C)C(=O)N[C@@H](C)C(=O)NCC(=O)NCC(=O)N1CCC[C@H]1C(=O)N[C@@H](CO)C(=O)N[C@@H](CO)C(=O)O [Compound 20] (H-Y[Aib]EGTFTSDYSILLEK([εLys-εLys-γGlu-C18 diacid])QAAREFINWLLAGGPSS-OH) | 0.0071 | 0.247 |  |  |  | 56 | 0.0042 | 0.256 |  | 2 | 10.8 | 0.21
4 | CC[C@H](C)[C@H](NC(=O)[C@H](Cc1ccccc1)NC(=O)[C@H](CCC(=O)O)NC(=O)[C@H](CCCNC(=N)N)NC(=O)[C@H](C)NC(=O)[C@H](C)NC(=O)[C@H](CCC(N)=O)NC(=O)[C@H](CCCCNC(=O)COCCOCCNC(=O)COCCOCCNC(=O)CC[C@H](NC(=O)CCCCCCCCCCCCCCCCC(=O)O)C(=O)O)NC(=O)[C@H](CCC(=O)O)NC(=O)[C@H](CC(C)C)NC(=O)[C@H](CC(C)C)NC(=O)[C@@H](NC(=O)[C@H](CO)NC(=O)[C@H](Cc1ccc(O)cc1)NC(=O)[C@H](CC(=O)O)NC(=O)[C@H](CO)NC(=O)[C@@H](NC(=O)[C@H](Cc1ccccc1)NC(=O)[C@@H](NC(=O)CNC(=O)[C@H](CCC(=O)O)NC(=O)C(C)(C)NC(=O)[C@@H](N)Cc1ccc(O)cc1)[C@@H](C)O)[C@@H](C)O)[C@@H](C)CC)C(=O)N[C@@H](CCC(=O)O)C(=O)N[C@@H](Cc1c[nH]c2ccccc12)C(=O)N[C@@H](CC(C)C)C(=O)N[C@@H](CC(C)C)C(=O)N[C@@H](C)C(=O)NCC(=O)NCC(=O)N1CCC[C@H]1C(=O)N[C@@H](CO)C(=O)N[C@@H](CO)C(=O)NCC(=O)N[C@@H](C)C(=O)N1CCC[C@H]1C(=O)N1CCC[C@H]1C(=O)N1CCC[C@H]1C(=O)N[C@@H](CO)C(=O)O [Compound 32] (H-Y[Aib]EGTFTSDYSILLEK([AEEA-AEEA-γGlu-C18 diacid])QAAREFIEWLLAGGPSSGAPPPS-OH) | 0.0071 | 0.679 | 25.3* kg * h/L | 0.45* kg/L | 1.8 | 80 | 0.005 | 0.982 |  |  |  | 
